We go through four compounds from publication PMC11044151, “Development of Half-Sandwich Ru, Os, Rh, and Ir Complexes Bearing the Pyridine-2-ylmethanimine Bidentate Ligand Derived from 7-Chloroquinazolin-4(3H)-one with Enhanced Antiproliferative Activity” (ACS Omega, 2024).

SMILES strings stand for the structures.

One data set relates to SW620. Nature of the data set: Neutral red uptake antiproliferative assay, SW620. Particulars: for IC50: exposure time 72 h, n = 3, 95% CI given; for activity factor IC50(1)/IC50(3a–4d), SW620: vs corresponding amine (R)-1 or (S)-1, 72 h. The data set is classed as cell-based, human. An outline of the steps: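 Following overnight attachment, cultures received compound for 70 h, then 1 mM neutral red for 2 h, an ice-cold PBS wash and acidified-ethanol extraction before reading at 540 nm. Medium was glucose-rich DMEM plus GlutaMax, HEPES and 10% serum; IC50 and IC90 were computed from five-parameter logistic curves.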

The test system of another data set is SW620C. Description: Neutral red uptake antiproliferative assay, MDR line SW620C. Type of data set: cell-based, human. Particulars: for IC50: exposure time 72 h, n = 3, ABCG2-overexpressing MDR line; for activity factor IC50(1)/IC50(3a–4d), SW620C: vs corresponding amine (R)-1 or (S)-1, 72 h. The procedure, abridged: (§1)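 SW620 MDR panel; ABCG2 high in SW620C and SW620Mito, ABCC1 in SW620M, ABCB1 in SW620D. Neutral red uptake assay; data normalised to control (%).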

For a further data set, the system named is SW620V. Description: Neutral red uptake antiproliferative assay, MDR line SW620V. Particulars: for IC50: exposure time 72 h, n = 3, ABCB1-overexpressing MDR line; for activity factor IC50(1)/IC50(3a–4d), SW620V: vs corresponding amine (R)-1 or (S)-1, 72 h. The data set is classed as cell-based, human.
A further data set deals with HCT116. Nature of the data set: cells. Particulars: for IC50: read-out: IC50 HCT116, exposure time 72 h, n = 3, 95% CI given; for activity factor IC50(1)/IC50(3a–4d), HCT116: vs corresponding amine (R)-1 or (S)-1, 72 h. The procedure, abridged:
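Cells seeded at 10^4 per well overnight, then exposed to compounds (0.1% v/v DMSO final) for 70 h. Viability by neutral red uptake: 1 mM dye for 2 h, acid-ethanol extraction, A540. IC50 and IC90 from five-parameter logistic regression.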

Another data set has as its system SW620Mito. Description: Neutral red uptake antiproliferative assay, MDR line SW620Mito. Type of data set: cell-based, human. Particulars: for IC50: exposure time 72 h, n = 3, ABCG2-overexpressing MDR line; for activity factor IC50(1)/IC50(3a–4d), SW620Mito: vs corresponding amine (R)-1 or (S)-1, 72 h. The procedure, abridged:
as §1

The test system of a further data set is SW620 cells. Nature of the data set: Cell cycle distribution by flow cytometry, SW620. Type of data set: cell-based, human. Particulars: concentration equal to IC75 of (S)-1 / (R)-1, mean ± SEM, n = 3; for Cell cycle fraction G1, 24 h / Cell cycle fraction G2/M, 24 h / Cell cycle fraction S, 24 h: SW620, 24 h; for Cell cycle fraction G1, 48 h / Cell cycle fraction G2/M, 48 h / Cell cycle fraction S, 48 h: SW620, 48 h. An outline of the steps: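 SW620 (and resistant SW620E) cells seeded at 10^5/well, exposed to compounds 24 and 48 h, ethanol-fixed, then stained with 75 μM propidium iodide plus RNase A for 30 min at 37 °C. Flow cytometry read-out; phase distribution by the Watson pragmatic algorithm.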
For orientation: In flow cytometry, cells or beads pass a laser one at a time.

Data set [1] is described as follows: Stability study in the presence of L-cysteine (UV-vis, HPLC-MS). The data set is classed as physicochemical. Particulars: 20 μM complex, 0.2 mM L-cysteine in water, 0.5 vol % DMSO, followed over 2 h. The source says: For biological studies, compounds are commonly administered as dimethyl sulfoxide (DMSO) solution to cells cultured in a specific medium such as Dulbecco’s modified Eagle’s medium (DMEM). DMEM consists of numerous organic compounds which may act as ligands for organometallics. Therefore, it is important to know how the compounds behave in such conditions. The two most prominent components of DMEM which may coordinate to half-sandwich complexes are L-cysteine and L-histidine. Both of those amino acids are present in DMEM at 0.2 mM concentration, so we studied how the complexes interact with them using UV–vis spectroscopy and HPLC-MS analysis. The DMSO solutions of complexes were added to the aqueous solution of L-cysteine or L-histidine to achieve a complex concentration of 20 μM while keeping the DMSO concentration at 0.5 vol %. […] HPLC-MS analysis confirmed the formation of an additional peak at τ = 0.95 min with m/z 714 assigned to [M-Cl-PF6 + HCOOH]^+; additionally, the intensity of peaks corresponding to 3c is lower (Figure S26). […] The intensity of absorbance peaks at λ = 287 and λ = 372 nm in the presence of cysteine is decreasing, while the intensity of peaks at λ = 304 and λ = 318 nm is almost intact.
The stability of 3a–d was studied in the presence of L-cysteine or L-histidine. 3a–d were dissolved in DMSO and added to 0.2 mM aqueous solution of L-cysteine or L-histidine to achieve the complex concentration of 20 μM while keeping the DMSO concentration at 0.5 vol %. UV–vis spectra were recorded over 2 h with 10 min intervals.

Usually IC50 stands for the concentration needed to halve the response being measured.

Take `CC(C)[C@@H](N=Cc1ccccn1)c1nc2cc(Cl)ccc2c(=O)n1Cc1ccccc1.Cc1ccc(C(C)C)cc1.F[P-](F)(F)(F)(F)F.[Cl-].[Ru+2]` [Compound 3a, [(cym)Ru((R)-2)Cl]PF6]: in the data set on SW620, 1.22 µM corresponded to half-maximal inhibition (IC50) and the “activity factor IC50(1)/IC50(3a–4d), SW620” value is given as “(0.079)”. In addition, in the data set with SW620C, the IC50 was determined as 4.38 µM and the “activity factor IC50(1)/IC50(3a–4d), SW620C” value is reported as “(0.165)”. Moreover, in the data set on SW620V, the IC50 came to 4.71 µM and the “activity factor IC50(1)/IC50(3a–4d), SW620V” value is on record as “(0.044)”. In addition, in the data set on HCT116, the IC50 turned out to be 2.88 µM and the “activity factor IC50(1)/IC50(3a–4d), HCT116” value is given as “(0.120)”. In the data set with SW620Mito, the IC50 was determined as 4.33 µM and the “activity factor IC50(1)/IC50(3a–4d), SW620Mito” value was “(0.060)”. Also, in the data set with SW620 cells, the “Cell cycle fraction G1, 24 h” value is recorded as 51.9 ± 1.0%; the “Cell cycle fraction G2/M, 24 h” value stood at 32.5 ± 1.5%; the “Cell cycle fraction S, 24 h” value stood at 14.9 ± 0.6%; the “Cell cycle fraction G1, 48 h” value is on record as 44.8 ± 0.7%. Moreover, in the data set with SW620 cells, the “Cell cycle fraction G2/M, 48 h” value came to 40.2 ± 1.1% and the “Cell cycle fraction S, 48 h” value worked out at 14.3 ± 0.4%. Moreover, the “reaction with L-cysteine (stability)” value in data set [1] was “neither ruthenium 3a nor the osmium complex 3b reacts with those amino acids within 2 h”.

For `CC(C)[C@@H](N=Cc1ccccn1)c1nc2cc(Cl)ccc2c(=O)n1Cc1ccccc1.Cc1ccc(C(C)C)cc1.F[P-](F)(F)(F)(F)F.[Cl-].[Os+2]` [Compound 3b, [(cym)Os((R)-2)Cl]PF6], in the data set with SW620, the IC50 was 0.556 µM and the “activity factor IC50(1)/IC50(3a–4d), SW620” value is “(0.173)”. Further, in the data set with SW620C, half-maximal inhibition (IC50) was put at 1.17 µM and the “activity factor IC50(1)/IC50(3a–4d), SW620C” value was “(0.616)”. Besides, in the data set on SW620V, half-maximal inhibition (IC50) required 1.03 µM and the “activity factor IC50(1)/IC50(3a–4d), SW620V” value is recorded as “(0.200)”. Further, in the data set with HCT116, the IC50 was determined as 0.424 µM and the “activity factor IC50(1)/IC50(3a–4d), HCT116” value was “(0.816)”. In the data set with SW620Mito, the IC50 was 0.748 µM and the “activity factor IC50(1)/IC50(3a–4d), SW620Mito” value is listed as “(0.349)”. In the data set on SW620 cells, the “Cell cycle fraction G1, 24 h” value turned out to be 51.4 ± 1.2%; the “Cell cycle fraction G2/M, 24 h” value turned out to be 35.3 ± 1.4%; the “Cell cycle fraction S, 24 h” value turned out to be 12.5 ± 2.1%; the “Cell cycle fraction G1, 48 h” value worked out at 41.4 ± 0.7%. Moreover, in the data set on SW620 cells, the “Cell cycle fraction G2/M, 48 h” value was found to be 45.0 ± 0.5% and the “Cell cycle fraction S, 48 h” value worked out at 12.7 ± 1.1%. For the same compound, the “reaction with L-cysteine (stability)” value in data set [1] is reported as “neither ruthenium 3a nor the osmium complex 3b reacts with those amino acids within 2 h”.

Take `CC(C)[C@@H](N=Cc1ccccn1)c1nc2cc(Cl)ccc2c(=O)n1Cc1ccccc1.Cc1c(C)c(C)[c-](C)c1C.F[P-](F)(F)(F)(F)F.[Cl-].[Rh+3]` [Compound 3c, [(Cp*)Rh((R)-2)Cl]PF6]: in the data set on SW620, inhibition was half-maximal at 0.152 µM (IC50) and the “activity factor IC50(1)/IC50(3a–4d), SW620” value is recorded as “(0.632)”. In the data set with SW620C, the IC50 was determined as 0.592 µM and the “activity factor IC50(1)/IC50(3a–4d), SW620C” value was “(1.22)”. In addition, in the data set on SW620V, it took 0.21 µM to reach half-maximal inhibition (IC50) and the “activity factor IC50(1)/IC50(3a–4d), SW620V” value is listed as “(0.981)”. In the data set with HCT116, the IC50 stood at 0.173 µM and the “activity factor IC50(1)/IC50(3a–4d), HCT116” value is listed as “(2.00)”. In addition, in the data set on SW620Mito, the IC50 amounted to 0.524 µM and the “activity factor IC50(1)/IC50(3a–4d), SW620Mito” value is reported as “(0.498)”. For the same compound, in the data set on SW620 cells, the “Cell cycle fraction G1, 24 h” value was found to be 33.9 ± 2.5%; the “Cell cycle fraction G2/M, 24 h” value turned out to be 40.9 ± 3.5%; the “Cell cycle fraction S, 24 h” value turned out to be 24.2 ± 1.4%; the “Cell cycle fraction G1, 48 h” value was found to be 23.1 ± 1.7%. In the data set with SW620 cells, the “Cell cycle fraction G2/M, 48 h” value was determined as 54.5 ± 1.8% and the “Cell cycle fraction S, 48 h” value was 20.8 ± 2.2%. Further, in data set [1], the “reaction with L-cysteine (stability)” value was “slowly reacts with L-cysteine”.

Turning to `CC(C)[C@@H](N=Cc1ccccn1)c1nc2cc(Cl)ccc2c(=O)n1Cc1ccccc1.Cc1c(C)c(C)[c-](C)c1C.F[P-](F)(F)(F)(F)F.[Cl-].[Ir+3]` [Compound 3d, [(Cp*)Ir((R)-2)Cl]PF6], in the data set on SW620, the 50% inhibitory concentration (IC50) stood at 0.198 µM and the “activity factor IC50(1)/IC50(3a–4d), SW620” value is given as “(0.485)”. Moreover, in the data set on SW620C, the 50% inhibitory concentration (IC50) was determined as 0.335 µM and the “activity factor IC50(1)/IC50(3a–4d), SW620C” value is “(2.15)”. Besides, the “higher cytotoxicity than corresponding amine 1, SW620C” value in the data set with SW620C (rounded value) is listed as 2.2 fold. In addition, in the data set on SW620V, the IC50 was 0.267 µM and the “activity factor IC50(1)/IC50(3a–4d), SW620V” value was “(0.771)”. In the data set on HCT116, the IC50 amounted to 0.476 µM and the “activity factor IC50(1)/IC50(3a–4d), HCT116” value is “(0.727)”. Besides, in the data set on SW620Mito, it took 0.268 µM to reach half-maximal inhibition (IC50) and the “activity factor IC50(1)/IC50(3a–4d), SW620Mito” value is reported as “(0.974)”. In the data set with SW620 cells, the “Cell cycle fraction G1, 24 h” value turned out to be 30.8 ± 0.8%; the “Cell cycle fraction G2/M, 24 h” value came out at 43.4 ± 1.5%; the “Cell cycle fraction S, 24 h” value came to 25.4 ± 0.8%; the “Cell cycle fraction G1, 48 h” value worked out at 24.3 ± 1.2%. In the data set with SW620 cells, the “Cell cycle fraction G2/M, 48 h” value is 55.9 ± 1.1% and the “Cell cycle fraction S, 48 h” value is on record as 19.3 ± 0.4%. In addition, the “reaction with L-cysteine (stability)” value in data set [1] was “reacts with both L-cysteine and L-histidine (Figure 6) in 40 min”.
